Key:
[1] = system: Enterobacter aerogenes ATCC 13048; test: MIC assay (microbroth dilution) ± 25 μM EPI; type: cell-based
Source text: (§1) • Strains and Reagents. The following strains were obtained from the Keio collection (Baba, et al.: Construction of Escherichia coli K-12 in-frame, single-gene knockout mutants: the Keio collection. In Mol Syst Biol, vol. 2, pp. 2006 0008, (2006)): JW0451 (ΔacrB::kan), JW5503 (ΔtolC::kan), JW3234 (ΔacrF::kan), JW2661 (ΔemrB::kan), JW0863 (ΔmacB::kan). The deletion mutations in each of these strains were transferred to AB1157 using P1 phage transduction (see Table 1). The construction of the E. coli cell-based reporter strain (SOS-XXX) that was used for high throughput screening is described in detail in the supplementary information. […] Irgasan was a generous gift from Ciba Speciality Chemicals, Inc. (High Point, N.C.). Hoechst 33342 (H33342) was purchased from Molecular Probes (Eugene, Oreg.). […] Luria Broth (Miller) and agar were purchased as prepared dehydrated media from Becton Dickenson (Franklin Lakes, N.J.). The compound libraries used in high-throughput screens were purchased from Chembridge (San Diego, Calif.), ChemDiv (San Diego, Calif.), and TimTec (Newark, Del.). MBX2319 was synthesized by Microbiotix, Inc. • Antibacterial Activity Assays. The minimal inhibitory concentration (MIC) of antibacterial agents and biocides were determined using the microbroth dilution method essentially as described in the CLSI protocol M7-A7 (CLSI: Method for dilution antimicrobial susceptibility testing for bacteria that grow aerobically; Approved standard-document M7-A7. In Clinical and Laboratory Standards Institute document M7-A7, Clinical and Laboratory Standards Institute, Wayne, Pa., (2006)), with the following exceptions. LB media was used instead of MHB. […] The final concentration of DMSO in each assay was 2%. […] MIC assays were performed in triplicate and the geometric mean was calculated. Checkerboard MIC assays using an EPI and an antibacterial agent were performed essentially as described (Pillai, et al.: Antimicrobial Combinations. In Antibiotics in Laboratory Medicine, ed. by V. Lorian, pp. 365-440, Lippincott Williams & Wilkins, Philadelphia, Pa., (2005)), with the same modifications used for the MIC assays described above. • Time-Kill Assays. Killing curve assays were performed essentially as described (Pillai, et al.: Antimicrobial Combinations. In Antibiotics in Laboratory Medicine, ed. by V. Lorian, pp. 365-440, Lippincott Williams & Wilkins, Philadelphia, Pa., (2005)). Exponential bacterial cultures grown in LB were diluted to a cell density of ˜1×10^7 in LB followed by addition of CIP and/or an EPI. Viability was monitored over 2-4 hours by making serial dilutions in saline and spotting 5 μl of each dilution onto the surface of an LB agar plate in triplicate. Colonies were counted after the plates were incubated at 37° C. for 16-18 hr, colony forming units (CFU) per ml were calculated, and the average and standard deviation for the three replicates was determined. For treatments that decreased CFU/ml below the limit of detection for the spot plating method, the 100 μl samples were diluted into 5 ml LB top agar, were poured onto LB agar plates, and incubated for 18 hr at 37° C. To calculate the fraction of the control for each sample, the average CFU/ml values for treated samples were divided by those from the same sample at 0 h (time=0). Each experiment was repeated at least three times, and a representative experiment is shown. • H33342 Accumulation Assay. The rate of accumulation of the fluorescent dye Hoechst 33342 (H33342), which is a substrate of a wide variety of bacterial efflux pumps (van den Berg van Saparoea, et al., Biochemistry, vol. 44, pp. 16931-16938, (2005)), can be used to estimate the activity of the major efflux pumps in E. coli and many other bacterial species. The H33342 accumulation assay was used to evaluate the effect of EPIs on the activity of the AcrAB-TolC efflux pump in several bacterial species essentially as described (Coldham, et al., J Antimicrob Chemother, vol. 65, pp. 1655-1663, (2010)). […]

Escherichia coli 331 = test: MIC assay (microbroth dilution) ± 25 μM EPI; type: cell-based; conditions: E. coli 331
Source text: as §1

Escherichia coli AB1157 = test: MIC assay (microbroth dilution) ± 25 μM EPI; type: cell-based
Source text: as §1

[2] = system: Escherichia coli ATCC 25922; test: MIC assay (microbroth dilution) ± 25 μM EPI; type: cell-based
Source text: as §1

[3] = system: Shigella flexneri ATCC 12022; test: MIC assay (microbroth dilution) ± 25 μM EPI; type: cell-based
Source text: as §1

[4] = system: Salmonella enterica ATCC 14028; test: MIC assay (microbroth dilution) ± 25 μM EPI; type: cell-based
Source text: as §1

[5] = system: Klebsiella pneumoniae ATCC 700603; test: MIC assay (microbroth dilution) ± 25 μM EPI; type: cell-based
Source text: as §1

[6] = system: Escherichia coli 285 (AB1157, CIPR, overexpresses efflux); test: microbe, parasite or virus in culture; type: cell-based
Source text: as §1

[7] = system: Escherichia coli 287 (AB1157, CIPR, overexpresses efflux); test: microbe, parasite or virus in culture; type: cell-based
Source text: as §1

P. aeruginosa ATCC 27853 = test: MIC assay (microbroth dilution) ± 25 μM EPI; type: cell-based, Pseudomonas aeruginosa
Source text: as §1

[8] = Escherichia coli, read-out: MIC (μg/ml) with MBX2319 at concn (μM) of: 0

CO/N=C(\C(=O)N[C@@H]1C(=O)N2C(C(=O)O)=C(COC(C)=O)CS[C@H]12)c1csc(N)n1 [CEF, cefotaxime]
MIC (μg/ml) ± EPI: MBX2319 ([1]; + 25 μM MBX2319): 2.4 µg/mL | MIC (μg/ml) ± EPI: PAβN ([1]; + 25 μM PAβN): 6.7 µg/mL | MIC ([1]; Klebsiella aerogenes, ATCC13048, no EPI, read-out: MIC (μg/ml) ± EPI: None): 2 µg/mL | MIC (μg/ml) ± EPI: MBX2319 (Escherichia coli 331; + 25 μM MBX2319): 0.031 µg/mL | MIC (μg/ml) ± EPI: PAβN (Escherichia coli 331; + 25 μM PAβN): 0.353 µg/mL | MICs (μg/ml) ± EPIs: MBX2319 (Escherichia coli AB1157; E. coli AB1157 (WT), + 25 μM MBX2319, geometric mean): 0.022 µg/mL | MICs (μg/ml) ± EPIs: PAβN (Escherichia coli AB1157; E. coli AB1157 (WT), + 25 μM PAβN, geometric mean): 0.25 µg/mL | MIC (Escherichia coli AB1157; Escherichia coli, AB1157, read-out: MICs (μg/ml) ± EPIs: None): 0.1 µg/mL | MIC (μg/ml) ± EPI: MBX2319 ([2]; E. coli ATCC 25922, + 25 μM MBX2319): 0.063 µg/mL | MIC (μg/ml) ± EPI: PAβN ([2]; E. coli ATCC 25922, + 25 μM PAβN): 0.25 µg/mL | MIC ([2]; Escherichia coli, ATCC25922, read-out: MIC (μg/ml) ± EPI: None): 0.074 µg/mL | MIC (μg/ml) ± EPI: MBX2319 ([3]; Shigella flexneri ATCC 12022, + 25 μM MBX2319): 0.031 µg/mL | MIC (μg/ml) ± EPI: PAβN ([3]; Shigella flexneri ATCC 12022, + 25 μM PAβN): 0.063 µg/mL | MIC ([3]; Shigella flexneri, ATCC12022, read-out: MIC (μg/ml) ± EPI: None): 0.063 µg/mL | MIC (μg/ml) ± EPI: MBX2319 ([4]; + 25 μM MBX2319): 0.063 µg/mL | MIC (μg/ml) ± EPI: PAβN ([4]; + 25 μM PAβN): 0.297 µg/mL | MIC ([4]; ATCC14028, no EPI, read-out: MIC (μg/ml) ± EPI: None): 0.21 µg/mL | MIC (μg/ml) ± EPI: MBX2319 ([5]; + 25 μM MBX2319): 8 µg/mL | MIC (μg/ml) ± EPI: PAβN ([5]; + 25 μM PAβN): 8 µg/mL | MIC ([5]; ATCC700603, no EPI, read-out: MIC (μg/ml) ± EPI: None): 8 µg/mL | MIC (μg/ml) with MBX2319 at concn (μM) of: 3.13 ([6]; 285, MBX2319 3.13 μM): 0.063 µg/mL | MIC (μg/ml) with MBX2319 at concn (μM) of: 6.25 ([6]; 285, MBX2319 6.25 μM): 0.063 µg/mL | MIC (μg/ml) with MBX2319 at concn (μM) of: 25 ([6]; 285, MBX2319 25 μM): 0.031 µg/mL | MIC (μg/ml) with MBX2319 at concn (μM) of: 50 ([6]; 285, MBX2319 50 μM): 0.031 µg/mL | MIC [6, 8]: 0.25 µg/mL | MIC (μg/ml) with MBX2319 at concn (μM) of: 6.25 ([7]; 287, MBX2319 6.25 μM): 0.063 µg/mL | MIC (μg/ml) with MBX2319 at concn (μM) of: 25 ([7]; 287, MBX2319 25 μM): 0.063 µg/mL | MIC (μg/ml) with MBX2319 at concn (μM) of: 50 ([7]; 287, MBX2319 50 μM): 0.063 µg/mL | MIC [7, 8]: 0.25 µg/mL | MIC (μg/ml) ± EPI: MBX2319 (P. aeruginosa ATCC 27853; + 25 μM MBX2319): 8 µg/mL | MIC (μg/ml) ± EPI: PAβN (P. aeruginosa ATCC 27853; + 25 μM PAβN): 19 µg/mL | MIC (P. aeruginosa ATCC 27853; Pseudomonas aeruginosa, ATCC27853, no EPI, read-out: MIC (μg/ml) ± EPI: None): 53.8 µg/mL

Reference: patent US9540389B2, “Antimicrobial potentiators” (priority 2013, dated 2017)
